Literature values as cited in patent US8940311B2, “In situ controlled release drug delivery system” (priority 2004, dated 2015).

How the values were obtained:
[1] = target: plasma cholinesterase (Homo sapiens, UniProt P06276); conditions: hydrolysis by plasma cholinesterase
[2] = system: liver microsomal enzymes

Sequence of plasma cholinesterase (P06276 29-602): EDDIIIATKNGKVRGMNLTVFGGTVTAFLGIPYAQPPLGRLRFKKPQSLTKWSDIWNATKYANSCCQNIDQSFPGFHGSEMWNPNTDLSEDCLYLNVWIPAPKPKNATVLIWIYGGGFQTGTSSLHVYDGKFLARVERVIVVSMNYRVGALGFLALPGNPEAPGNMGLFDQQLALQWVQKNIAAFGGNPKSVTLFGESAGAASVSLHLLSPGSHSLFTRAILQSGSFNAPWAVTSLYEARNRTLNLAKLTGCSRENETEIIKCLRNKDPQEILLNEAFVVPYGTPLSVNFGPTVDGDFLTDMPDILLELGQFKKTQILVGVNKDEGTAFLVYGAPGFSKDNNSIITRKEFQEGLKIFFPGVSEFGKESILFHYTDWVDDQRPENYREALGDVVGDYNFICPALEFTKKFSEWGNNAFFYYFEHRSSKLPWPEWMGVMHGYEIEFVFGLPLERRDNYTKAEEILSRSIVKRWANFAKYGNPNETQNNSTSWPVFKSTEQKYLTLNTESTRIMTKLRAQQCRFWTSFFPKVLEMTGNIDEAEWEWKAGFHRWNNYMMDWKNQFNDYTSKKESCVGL

| order of rate of amide hydrolysis [2] | Structure (SMILES) | half-life [1] |
| --- | --- | --- |
|  | CCN(CC)CCOC(=O)c1ccc(N)cc1Cl [chloroprocaine] | less than one |
| fastest | CCCN(CC)C(CC)C(=O)Nc1c(C)cccc1C (stereo not shown) [etidocaine] |  |
|  | CCN(CC)CCOC(=O)c1ccc(N)cc1 [procaine] | less than one |
| slowest | CCCCN1CCCCC1C(=O)Nc1c(C)cccc1C (stereo not shown) [bupivacaine] |  |
